Measured values reported in patent publication EP4603105A1, “PHARMACEUTICAL COMPOSITION CONTAINING CYCLIC COMPOUND HAVING SELECTIVE KRAS INHIBITORY EFFECT AGAINST HRAS AND NRAS” (CHUGAI SEIYAKU KABUSHIKI KAISHA, priority 2022, dated 2024).

Experiments:
[1] = target: GDP-bound NRAS wild-type protein (Homo sapiens, UniProt P01111); assay: Binding to NRAS by surface plasmon resonance (SPR), KD and KD ratio to KRAS; conditions: ratio of KD for GDP-bound NRAS wild-type protein to KD for KRAS
Procedure, shortened: (§1)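 Biotinylated GDP-bound RAS was captured at about 100–300 RU. Running buffer: HBS pH 7.4, 10 mM MgCl2, 10 µM GDP, 1 mM DTT, 0.01% Tween 20, 4% DMSO.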

[2] = target: HRAS wild-type protein (Homo sapiens, UniProt P01112); assay: Binding to HRAS by surface plasmon resonance (SPR), KD and KD ratio to KRAS; conditions: ratio of KD for HRAS wild-type protein to KD for KRAS
HRAS wild-type protein, sequence (P01112 whole entry): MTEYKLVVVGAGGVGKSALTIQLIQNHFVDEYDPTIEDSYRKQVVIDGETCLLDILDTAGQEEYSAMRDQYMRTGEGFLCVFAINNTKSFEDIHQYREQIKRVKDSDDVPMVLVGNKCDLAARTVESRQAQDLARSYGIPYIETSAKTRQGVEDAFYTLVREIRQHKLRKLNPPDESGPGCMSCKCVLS
Procedure, shortened: as §1

[3] = system: human lung cancer strain NCI-H441; assay type: cell-based
Procedure, shortened: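 Step one: dispense the test compound in serial DMSO dilutions. Step three: add the reagent and measure […].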

GDP-bound NRAS wild-type protein, sequence (P01111 whole entry): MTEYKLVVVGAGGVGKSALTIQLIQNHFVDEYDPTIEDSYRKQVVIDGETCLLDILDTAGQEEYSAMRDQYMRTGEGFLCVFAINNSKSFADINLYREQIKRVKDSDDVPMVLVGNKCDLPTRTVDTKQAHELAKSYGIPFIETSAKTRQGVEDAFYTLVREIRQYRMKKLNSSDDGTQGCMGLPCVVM

Row | SMILES | NRAS /KRAS [1] | HRAS /KRAS [2] | IC50 [3] [nM]
1 | CC[C@H](C)[C@@H]1NC(=O)[C@@H]2CCCCc3ccc(cc3)C[C@@H](C(=O)N(C)CC(=O)N[C@@H](CCc3ccc(C(F)(F)F)c(OC)c3)C(=O)N3C[C@H](OC(C)C)C[C@H]3C(=O)NC3(CC(C)(C)C3)C(=O)N(C)[C@@H](C3CCCC3)C(=O)N(C)[C@H](C(=O)N(C)CC)CC(=O)N2C)N2CC/C=C\C[C@@H](C2=O)N(C)C(=O)CN(C)C1=O [PP3078] | A (a compound having 10 or more and less than 20 is denoted as A) | B (a compound having 3 or more and less than 10 is denoted as B) | 2.3
2 | CC[C@H](C)[C@@H]1NC(=O)[C@@H]2CCCCc3ccc(cc3)C[C@@H](C(=O)N(C)CC(=O)N[C@@H](CCc3ccc(C(F)(F)F)c(OC)c3)C(=O)N3C[C@H](OC4CCCC4)C[C@H]3C(=O)NC3(CC(C)(C)C3)C(=O)N(C)[C@@H](C3CCCC3)C(=O)N(C)[C@H](C(=O)N(C)C)CC(=O)N2C)N2CC/C=C\C[C@@H](C2=O)N(C)C(=O)CN(C)C1=O [PP3080] | A (a compound having 10 or more and less than 20 is denoted as A) | B (a compound having 3 or more and less than 10 is denoted as B) | 4.3
3 | CC[C@H](C)[C@@H]1NC(=O)[C@@H]2CCCCc3ccc(cc3)C[C@@H](C(=O)N(C)CC(=O)N[C@@H](CCc3ccc(C(F)(F)F)c(OC)c3)C(=O)N3CC4(CC4)C[C@H]3C(=O)NC3(CC(C)(C)C3)C(=O)N(C)[C@@H](C3CCCC3)C(=O)N(C)[C@H](C(=O)N(C)CC)CC(=O)N2C)N2CC/C=C\C[C@@H](C2=O)N(C)C(=O)CN(C)C1=O [PP3081] | A (a compound having 10 or more and less than 20 is denoted as A) | B (a compound having 3 or more and less than 10 is denoted as B) | 1.9
4 | CCCO[C@@H]1C[C@H]2C(=O)NC3(CC(C)(C)C3)C(=O)N(C)[C@@H](C3CCCC3)C(=O)N(C)[C@H](C(=O)N(C)C)CC(=O)N(C)[C@H]3CCCCc4ccc(cc4)C[C@@H](C(=O)N(C)CC(=O)N[C@@H](CCc4ccc(C(F)(F)F)c(OC)c4)C(=O)N2C1)N1CC/C=C\C[C@@H](C1=O)N(C)C(=O)CN(C1CC1)C(=O)[C@H]([C@@H](C)CC)NC3=O [PP3082] | B (a compound having 3 or more and less than 10 is denoted as B) | B (a compound having 3 or more and less than 10 is denoted as B) | 1.7
5 | CC[C@H](C)[C@@H]1NC(=O)[C@@H]2CCCc3ccc(cc3)C[C@@H](C(=O)N(C)CC(=O)N[C@@H](CCc3ccc(C(F)(F)F)c(OC)c3)C(=O)N3C[C@H](OC4CCC4)C[C@H]3C(=O)NC3(CC(C)(C)C3)C(=O)N(C)[C@@H](C3CCCC3)C(=O)N(C)[C@H](C(=O)N(C)CC)CC(=O)N2C)N2CC/C=C\C[C@@H](C2=O)N(C)C(=O)CN(C)C1=O [PP3085] | A (a compound having 10 or more and less than 20 is denoted as A) | B (a compound having 3 or more and less than 10 is denoted as B) | 6.3
6 | CC[C@H](C)[C@@H]1NC(=O)[C@@H]2CCCc3ccc(cc3)C[C@@H](C(=O)N(C)CC(=O)N[C@@H](CCc3ccc(C(F)(F)F)c(OC)c3)C(=O)N3C[C@H](OC4CCCC4)C[C@H]3C(=O)NC3(CC(C)(C)C3)C(=O)N(C)[C@@H](C3CCCC3)C(=O)N(C)[C@H](C(=O)N(C)CC)CC(=O)N2C)N2CC/C=C\C[C@@H](C2=O)N(C)C(=O)CN(C)C1=O [PP3086] | B (a compound having 3 or more and less than 10 is denoted as B) | B (a compound having 3 or more and less than 10 is denoted as B) | 7.9
7 | CC[C@H](C)[C@@H]1NC(=O)[C@@H]2CCCc3ccc(cc3)C[C@@H](C(=O)N(C)CC(=O)N[C@@H](CCc3ccc(C(F)(F)F)c(OC)c3)C(=O)N3CC4(CC4)C[C@H]3C(=O)NC3(CC(C)(C)C3)C(=O)N(C)[C@@H](C3CCCC3)C(=O)N(C)[C@H](C(=O)N(C)CC)CC(=O)N2C)N2CC/C=C\C[C@@H](C2=O)N(C)C(=O)CN(C)C1=O [PP3087] | A (a compound having 10 or more and less than 20 is denoted as A) | B (a compound having 3 or more and less than 10 is denoted as B) | 6.9
8 | CCCO[C@@H]1C[C@H]2C(=O)NC3(CC(C)(C)C3)C(=O)N(C)[C@@H](C3CCCC3)C(=O)N(C)[C@H](C(=O)N(C)CC)CC(=O)N(C)[C@H]3CCCc4ccc(cc4)C[C@@H](C(=O)N(C)CC(=O)N[C@@H](CCc4ccc(C(F)(F)F)c(OC)c4)C(=O)N2C1)N1CC/C=C\C[C@@H](C1=O)N(C)C(=O)CN(C1CC1)C(=O)[C@H]([C@@H](C)CC)NC3=O [PP3088] | B (a compound having 3 or more and less than 10 is denoted as B) | B (a compound having 3 or more and less than 10 is denoted as B) | 15.1
9 | CCCO[C@@H]1C[C@H]2C(=O)NC3(CC(C)(C)C3)C(=O)N(C)[C@@H](C3CCCC3)C(=O)N(C)[C@H](C(=O)N(C)CC)CC(=O)N(C)[C@H]3CCCc4ccc(cc4)C[C@@H](C(=O)N(C)CC(=O)N[C@@H](CCc4ccc(Cl)c(Cl)c4)C(=O)N2C1)N1CC/C=C\C[C@@H](C1=O)N(C)C(=O)CN(C)C(=O)[C@H]([C@@H](C)CC)NC3=O [PP3089] | B (a compound having 3 or more and less than 10 is denoted as B) | B (a compound having 3 or more and less than 10 is denoted as B) | 27
10 | CCO[C@@H]1C[C@H]2C(=O)N(C)C3(CC(C)(C)C3)C(=O)N(C)[C@@H](C3CCCC3)C(=O)N(C)[C@H](C(=O)N(C)C)CC(=O)N(C)[C@H]3CCCCCCc4ccc(cc4)C[C@@H](C(=O)N(C)CC(=O)N[C@@H](CCc4ccc(C(F)(F)F)c(OC)c4)C(=O)N2C1)N1CC/C=C\C[C@@H](C1=O)N(C)C(=O)CN(C)C(=O)[C@H]([C@@H](C)CC)NC3=O [PP3090] | A (a compound having 10 or more and less than 20 is denoted as A) | B (a compound having 3 or more and less than 10 is denoted as B) | 1.3
11 | CCCO[C@@H]1C[C@H]2C(=O)NC3(CC(C)(C)C3)C(=O)N(C)[C@@H](C3CCCC3)C(=O)N(C)[C@H](C(=O)N(C)C)CC(=O)N(C)[C@H]3CCCCc4ccc(cc4)C[C@@H](C(=O)N(C)CC(=O)N[C@@H](CCc4ccc(Cl)c(Cl)c4)C(=O)N2C1)N1CC/C=C\C[C@@H](C1=O)N(C)C(=O)CN(C)C(=O)[C@H]([C@@H](C)CC)NC3=O [PP3092] | A (a compound having 10 or more and less than 20 is denoted as A) | A (a compound having 10 or more and less than 20 is denoted as A) | 7.4
12 | CCCO[C@@H]1C[C@H]2C(=O)NC3(CC(C)(C)C3)C(=O)N(C)[C@@H](C3CCCC3)C(=O)N(C)[C@H](C(=O)N3CCCC3)CC(=O)N(C)[C@H]3CCCCc4ccc(cc4)C[C@@H](C(=O)N(C)CC(=O)N[C@@H](CCc4ccc(C(F)(F)F)c(OC)c4)C(=O)N2C1)N1CC/C=C\C[C@@H](C1=O)N(C)C(=O)CN(C)C(=O)[C@H]([C@@H](C)CC)NC3=O [PP3094] | A (a compound having 10 or more and less than 20 is denoted as A) | B (a compound having 3 or more and less than 10 is denoted as B) | 2.2
